Source: ChEMBL document CHEMBL1201862, “PubChem BioAssay data set” (2004)
Activity calls are given as the source filed them.

Assays:
[1] = molecular target: T1, Mannose-6-phosphate isomerase (Homo sapiens, UniProt P34949); test: MPI inhibition at elevated mannose 6-phosphate – biochemical, fluorescence intensity, high mannose 6-phosphate, primary screen (AID 1220)
T1 sequence (P34949 whole entry): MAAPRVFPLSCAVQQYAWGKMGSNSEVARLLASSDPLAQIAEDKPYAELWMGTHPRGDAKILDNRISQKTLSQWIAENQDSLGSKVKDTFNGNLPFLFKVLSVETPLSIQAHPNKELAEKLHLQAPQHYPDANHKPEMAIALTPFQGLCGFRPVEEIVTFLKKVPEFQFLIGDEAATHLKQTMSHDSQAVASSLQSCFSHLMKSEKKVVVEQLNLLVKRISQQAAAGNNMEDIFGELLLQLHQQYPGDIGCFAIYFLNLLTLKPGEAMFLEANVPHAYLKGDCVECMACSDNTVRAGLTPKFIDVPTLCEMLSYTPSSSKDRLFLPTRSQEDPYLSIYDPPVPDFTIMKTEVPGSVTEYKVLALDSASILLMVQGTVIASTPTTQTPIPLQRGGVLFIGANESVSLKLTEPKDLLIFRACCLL

[2] = viability loss in human Jurkat cells – cell-based, luminescence, cytotoxicity control for P. falciparum gametocyte viability project, dose response (AID 1117277); format: functional;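 note: potency reflects loss of cellular ATP meaning fewer viable cells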
[3] = viability inhibitors of stage V gametocytes – luminescence, dose response (AID 1117278); format: functional, cell-based;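 note: gametocytes exposed to compound for 24 hours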
[4] = molecular target: Photoreceptor-specific nuclear receptor (Homo sapiens, UniProt Q9Y5X4); test: ligands suppressing NR2E3 nuclear receptor activity – biochemical, TR-FRET, dose response (AID 463256); format: functional
[5] = molecular target: Peroxisome proliferator-activated receptor gamma/Nuclear receptor corepressor 2 (Homo sapiens, UniProt P37231+Q9Y618); test: Counterscreen for NR2E3 inverse agonists: TR-FRET-based biochemical high throughput dose response assay to identify inverse agonists of the interaction between peroxisome proliferator-activated receptor gamma (PPARg) and nuclear receptor co-repressor 2 (NCOR2).; format: functional
Cytochrome P450 2C19 = Cytochrome P450 2C19 (Homo sapiens, UniProt P33261); test: qHTS Assay for Inhibitors and Substrates of Cytochrome P450 2C19. [Related pubchem assays: 410 ]; format: ADME; conditions: read-out: Potency
Prothrombin = Prothrombin (Bos taurus, UniProt P00735); test: thrombin protease inhibitors – biochemical, fluorescence polarization, uHTS hits, dose response (AID 602369); format: functional
[6] = molecular target: 26S proteasome non-ATPase regulatory subunit 14 (Homo sapiens, UniProt O00487); test: inhibition of proteasome subunit RPN11 – biochemical, fluorescence polarization, uHTS hits, confirmation (AID 602368); format: functional
[7] = molecular target: 72 kDa type IV collagenase (Homo sapiens, UniProt P08253); test: Dose Response validation of uHTS RPN11 inhibitor hits using a MMP-2 Fluorescence assay.; format: functional
Vero = test: inhibition of WNV-induced cytopathic effect – cell-based, CPE readout (AID 1621); format: functional; conditions: Chlorocebus sabaeus
[8] = molecular target: Serine/threonine-protein phosphatase PP1-alpha catalytic subunit (Homo sapiens, UniProt P62136); test: inhibition of protein phosphatase 1 activity – biochemical, fluorescence, dose response (AID 2394)
[9] = molecular target: T2, Replicative DNA helicase DnaB (Mycobacterium tuberculosis, UniProt P9WMR3); test: DnaB intein splicing inhibitors, dose response, biochemical, cell-free fluorescence (AID 449749); format: functional
T2 sequence (P9WMR3 whole entry): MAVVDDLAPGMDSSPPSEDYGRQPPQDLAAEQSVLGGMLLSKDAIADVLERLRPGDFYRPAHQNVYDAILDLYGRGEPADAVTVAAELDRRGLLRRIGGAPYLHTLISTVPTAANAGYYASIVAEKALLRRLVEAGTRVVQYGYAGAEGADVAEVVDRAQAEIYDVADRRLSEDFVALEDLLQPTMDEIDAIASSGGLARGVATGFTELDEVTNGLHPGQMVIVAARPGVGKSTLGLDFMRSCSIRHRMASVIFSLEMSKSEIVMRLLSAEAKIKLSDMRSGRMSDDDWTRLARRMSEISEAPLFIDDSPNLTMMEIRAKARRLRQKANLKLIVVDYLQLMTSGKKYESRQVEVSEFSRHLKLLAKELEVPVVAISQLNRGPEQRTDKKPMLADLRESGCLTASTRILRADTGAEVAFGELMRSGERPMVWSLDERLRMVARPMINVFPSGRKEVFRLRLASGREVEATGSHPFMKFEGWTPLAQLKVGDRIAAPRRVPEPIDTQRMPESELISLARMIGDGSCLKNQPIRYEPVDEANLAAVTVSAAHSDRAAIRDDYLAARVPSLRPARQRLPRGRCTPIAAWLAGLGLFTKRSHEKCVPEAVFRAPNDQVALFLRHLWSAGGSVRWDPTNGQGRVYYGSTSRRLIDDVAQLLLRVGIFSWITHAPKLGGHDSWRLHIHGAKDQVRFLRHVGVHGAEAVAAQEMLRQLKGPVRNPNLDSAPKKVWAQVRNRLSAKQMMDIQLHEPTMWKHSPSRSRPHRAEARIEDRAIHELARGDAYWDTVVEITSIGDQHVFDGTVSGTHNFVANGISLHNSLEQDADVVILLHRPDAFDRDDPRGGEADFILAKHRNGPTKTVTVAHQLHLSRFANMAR

Protein RecA = molecular target: T3, Protein RecA (Mycobacterium tuberculosis, UniProt P9WHJ3); test: Fluorescence Cell-Free Homogeneous Dose Retest to Identify Inhibitors of RecA-Intein Splicing Activity. [Related pubchem assays (depositor defined):AID2097, AID2223, AID489010, AID492950]; format: functional
T3 sequence (P9WHJ3 whole entry): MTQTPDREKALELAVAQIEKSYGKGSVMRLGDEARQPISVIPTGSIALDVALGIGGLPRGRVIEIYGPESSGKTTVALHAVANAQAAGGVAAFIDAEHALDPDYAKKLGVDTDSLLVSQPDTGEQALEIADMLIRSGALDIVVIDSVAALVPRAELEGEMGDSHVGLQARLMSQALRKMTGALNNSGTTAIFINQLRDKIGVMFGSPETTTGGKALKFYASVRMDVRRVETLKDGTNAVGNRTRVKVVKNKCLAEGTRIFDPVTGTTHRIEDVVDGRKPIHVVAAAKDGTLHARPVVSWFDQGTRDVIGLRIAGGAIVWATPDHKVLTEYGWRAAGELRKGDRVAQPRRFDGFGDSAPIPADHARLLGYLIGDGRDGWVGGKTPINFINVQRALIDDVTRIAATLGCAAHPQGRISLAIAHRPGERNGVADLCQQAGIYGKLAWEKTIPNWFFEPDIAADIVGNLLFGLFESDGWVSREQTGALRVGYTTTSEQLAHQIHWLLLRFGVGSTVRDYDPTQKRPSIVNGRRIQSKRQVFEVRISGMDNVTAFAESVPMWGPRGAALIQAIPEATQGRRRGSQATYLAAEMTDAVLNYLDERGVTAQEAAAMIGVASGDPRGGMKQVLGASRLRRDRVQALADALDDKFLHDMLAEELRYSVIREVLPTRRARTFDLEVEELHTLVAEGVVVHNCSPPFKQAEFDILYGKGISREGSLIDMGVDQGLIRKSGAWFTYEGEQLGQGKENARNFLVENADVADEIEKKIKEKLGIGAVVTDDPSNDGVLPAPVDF

SUMO-activating enzyme [10] = molecular target: T4, SUMO-activating enzyme (Homo sapiens, UniProt Q9UBT2); test: blockers of SAE1/SAE2–UBC9 SUMO transfer – biochemical, HTRF, uHTS, primary screen (AID 2006); format: protein-complex assay
SUMO-activating enzyme [11] = molecular target: T4, SUMO-activating enzyme; test: blockers of UBC9-mediated SUMO conjugation – biochemical, AlphaScreen, SUMOylation inhibitor project, confirmation (AID 2018); format: functional
[12] = molecular target: T5, Serine/threonine-protein phosphatase (Homo sapiens, UniProt Q9BPW0); test: inhibition of protein phosphatase 5 activity – biochemical, fluorescence, dose response (AID 2395)
T5 sequence (Q9BPW0 whole entry): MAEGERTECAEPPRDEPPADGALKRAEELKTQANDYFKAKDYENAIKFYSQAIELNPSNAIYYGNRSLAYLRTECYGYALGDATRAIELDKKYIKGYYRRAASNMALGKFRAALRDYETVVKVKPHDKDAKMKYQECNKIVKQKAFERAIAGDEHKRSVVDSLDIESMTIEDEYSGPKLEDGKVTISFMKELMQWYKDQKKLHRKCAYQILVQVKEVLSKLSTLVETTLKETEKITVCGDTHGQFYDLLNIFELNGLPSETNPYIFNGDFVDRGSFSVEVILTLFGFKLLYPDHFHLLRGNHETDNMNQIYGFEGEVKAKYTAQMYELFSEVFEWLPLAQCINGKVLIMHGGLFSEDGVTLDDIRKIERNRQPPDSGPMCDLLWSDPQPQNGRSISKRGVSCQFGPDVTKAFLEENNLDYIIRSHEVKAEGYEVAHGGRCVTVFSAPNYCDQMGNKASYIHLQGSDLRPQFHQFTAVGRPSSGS

[13] = Luminescence Cell-Based Dose Response HTS to Identify Activators of Luciferase Translation or Activity in H4 […] Cells. [Related pubchem assays: 1829 (Project Summary), 1814 (Primary HTS)]; format: functional
H4 = test: Luminescence Cell-Based Dose Response HTS to Identify Activators of 5'UTR Stem-Loop Driven Prion Protein mRNA Translation in H4 Neuroglioblastoma Cells. [Related pubchem assays: 1829 (Project Summary), 1814 (Primary HTS)]; format: functional; conditions: Homo sapiens
[14] = Luminescence Cell-Based Dose Confirmation HTS to Identify Activators of 5'UTR Stem-Loop Driven Alpha-Synuclein mRNA Translation in H4 Neuroglioblastoma Cells. [Related pubchem assays: 1829 (Project Summary), 1814 (Primary HTS)]; format: functional
[15] = fluconazole-exposed Candida albicans growth modulators – fluorescence, retest, confirmation (AID 2467); format: functional, cell-based
[16] = NIH-3T3 fibroblast cytotoxicity, dose response, cytotoxicity control, cell-based, fluorescence, Alamar Blue, secondary assay (AID 2327); format: functional;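 note: NIH-3T3 mouse fibroblasts cultured with fluconazole at 8 µg/mL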

Peroxisome proliferator-activated receptor gamma/Nuclear receptor corepressor 2, sequence (P37231 whole entry): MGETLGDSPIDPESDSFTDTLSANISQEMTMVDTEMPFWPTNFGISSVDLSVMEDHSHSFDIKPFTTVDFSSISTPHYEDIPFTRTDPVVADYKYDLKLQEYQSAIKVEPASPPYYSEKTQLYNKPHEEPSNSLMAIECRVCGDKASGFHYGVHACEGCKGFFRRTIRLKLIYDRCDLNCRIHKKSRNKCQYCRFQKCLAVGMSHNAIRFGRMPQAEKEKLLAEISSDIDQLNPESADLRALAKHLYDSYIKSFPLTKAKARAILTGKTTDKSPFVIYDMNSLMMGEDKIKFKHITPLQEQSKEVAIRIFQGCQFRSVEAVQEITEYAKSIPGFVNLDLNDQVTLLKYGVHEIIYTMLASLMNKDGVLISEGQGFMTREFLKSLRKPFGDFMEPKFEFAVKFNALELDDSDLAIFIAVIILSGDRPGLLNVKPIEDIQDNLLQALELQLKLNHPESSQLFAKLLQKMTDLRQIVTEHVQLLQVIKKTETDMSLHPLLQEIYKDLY
Peroxisome proliferator-activated receptor gamma/Nuclear receptor corepressor 2, sequence (Q9Y618 whole entry): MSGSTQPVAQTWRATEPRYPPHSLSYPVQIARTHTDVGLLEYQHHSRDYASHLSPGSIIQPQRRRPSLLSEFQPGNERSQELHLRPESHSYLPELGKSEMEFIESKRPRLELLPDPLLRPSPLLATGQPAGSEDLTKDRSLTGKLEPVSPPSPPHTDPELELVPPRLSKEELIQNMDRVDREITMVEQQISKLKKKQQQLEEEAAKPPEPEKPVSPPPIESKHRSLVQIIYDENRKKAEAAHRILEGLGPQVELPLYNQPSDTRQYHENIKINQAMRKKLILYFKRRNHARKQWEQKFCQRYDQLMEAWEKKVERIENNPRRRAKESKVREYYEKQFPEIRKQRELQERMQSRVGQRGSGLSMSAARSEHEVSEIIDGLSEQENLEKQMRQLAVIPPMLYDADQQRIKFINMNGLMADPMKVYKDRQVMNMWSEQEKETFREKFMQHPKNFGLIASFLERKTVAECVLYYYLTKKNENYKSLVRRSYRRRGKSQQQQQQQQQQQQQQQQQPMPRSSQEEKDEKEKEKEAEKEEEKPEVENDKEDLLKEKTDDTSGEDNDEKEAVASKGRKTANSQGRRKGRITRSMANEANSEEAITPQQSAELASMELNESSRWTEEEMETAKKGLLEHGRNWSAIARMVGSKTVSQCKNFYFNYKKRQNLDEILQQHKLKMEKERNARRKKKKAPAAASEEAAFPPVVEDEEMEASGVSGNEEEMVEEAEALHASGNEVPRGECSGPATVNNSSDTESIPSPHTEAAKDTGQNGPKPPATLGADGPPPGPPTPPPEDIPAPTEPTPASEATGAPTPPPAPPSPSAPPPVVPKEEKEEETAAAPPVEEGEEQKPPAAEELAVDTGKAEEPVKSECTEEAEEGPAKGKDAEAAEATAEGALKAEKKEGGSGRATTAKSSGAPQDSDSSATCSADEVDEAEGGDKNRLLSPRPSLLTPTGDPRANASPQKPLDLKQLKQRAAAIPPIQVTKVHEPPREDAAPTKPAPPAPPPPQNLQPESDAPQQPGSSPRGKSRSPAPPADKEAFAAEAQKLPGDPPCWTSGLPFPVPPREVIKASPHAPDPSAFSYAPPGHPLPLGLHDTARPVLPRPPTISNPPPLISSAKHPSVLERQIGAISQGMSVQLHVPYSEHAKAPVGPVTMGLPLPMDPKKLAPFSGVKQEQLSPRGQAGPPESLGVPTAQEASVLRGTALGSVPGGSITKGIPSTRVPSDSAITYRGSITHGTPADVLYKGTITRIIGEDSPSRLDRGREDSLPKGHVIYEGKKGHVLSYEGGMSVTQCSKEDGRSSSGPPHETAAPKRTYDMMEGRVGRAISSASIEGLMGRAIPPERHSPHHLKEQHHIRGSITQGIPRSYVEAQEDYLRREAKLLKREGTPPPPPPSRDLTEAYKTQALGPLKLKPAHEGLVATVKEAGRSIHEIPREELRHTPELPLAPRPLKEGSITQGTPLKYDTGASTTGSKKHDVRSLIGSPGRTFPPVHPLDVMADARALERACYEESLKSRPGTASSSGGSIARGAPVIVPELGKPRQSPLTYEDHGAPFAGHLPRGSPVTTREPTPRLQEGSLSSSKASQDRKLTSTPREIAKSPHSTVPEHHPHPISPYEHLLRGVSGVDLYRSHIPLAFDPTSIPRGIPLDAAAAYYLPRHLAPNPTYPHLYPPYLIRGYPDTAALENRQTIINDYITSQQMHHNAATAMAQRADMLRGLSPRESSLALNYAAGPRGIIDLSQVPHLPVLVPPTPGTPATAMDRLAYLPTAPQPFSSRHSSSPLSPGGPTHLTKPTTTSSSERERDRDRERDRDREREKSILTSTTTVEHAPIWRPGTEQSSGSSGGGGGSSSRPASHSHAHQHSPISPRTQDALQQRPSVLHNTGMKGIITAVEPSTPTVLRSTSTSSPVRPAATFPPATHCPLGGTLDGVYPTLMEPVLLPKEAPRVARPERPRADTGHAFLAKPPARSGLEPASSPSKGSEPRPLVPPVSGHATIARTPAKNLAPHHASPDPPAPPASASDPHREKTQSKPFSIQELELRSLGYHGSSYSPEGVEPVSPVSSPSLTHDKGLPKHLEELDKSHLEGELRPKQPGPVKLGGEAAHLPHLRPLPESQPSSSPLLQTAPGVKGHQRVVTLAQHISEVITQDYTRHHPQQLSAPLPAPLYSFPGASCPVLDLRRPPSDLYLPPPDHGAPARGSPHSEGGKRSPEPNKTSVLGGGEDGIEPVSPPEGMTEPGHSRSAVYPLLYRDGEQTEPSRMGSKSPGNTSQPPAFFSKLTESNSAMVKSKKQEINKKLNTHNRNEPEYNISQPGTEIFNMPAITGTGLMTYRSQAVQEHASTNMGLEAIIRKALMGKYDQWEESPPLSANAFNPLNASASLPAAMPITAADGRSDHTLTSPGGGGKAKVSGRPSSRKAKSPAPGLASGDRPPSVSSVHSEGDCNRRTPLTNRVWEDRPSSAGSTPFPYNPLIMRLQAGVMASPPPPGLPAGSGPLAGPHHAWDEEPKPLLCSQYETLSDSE
T4 sequence (Q9UBE0 whole entry): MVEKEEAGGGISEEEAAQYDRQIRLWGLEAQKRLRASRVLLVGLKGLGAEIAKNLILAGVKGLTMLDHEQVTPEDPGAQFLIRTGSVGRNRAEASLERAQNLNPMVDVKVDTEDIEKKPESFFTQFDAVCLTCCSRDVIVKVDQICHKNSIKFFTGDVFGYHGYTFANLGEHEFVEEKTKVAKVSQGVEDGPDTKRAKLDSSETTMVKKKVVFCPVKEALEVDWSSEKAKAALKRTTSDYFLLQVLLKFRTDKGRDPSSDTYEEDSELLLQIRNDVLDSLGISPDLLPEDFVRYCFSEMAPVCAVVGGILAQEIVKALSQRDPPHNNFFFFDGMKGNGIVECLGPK
T4 sequence (Q9UBT2 whole entry): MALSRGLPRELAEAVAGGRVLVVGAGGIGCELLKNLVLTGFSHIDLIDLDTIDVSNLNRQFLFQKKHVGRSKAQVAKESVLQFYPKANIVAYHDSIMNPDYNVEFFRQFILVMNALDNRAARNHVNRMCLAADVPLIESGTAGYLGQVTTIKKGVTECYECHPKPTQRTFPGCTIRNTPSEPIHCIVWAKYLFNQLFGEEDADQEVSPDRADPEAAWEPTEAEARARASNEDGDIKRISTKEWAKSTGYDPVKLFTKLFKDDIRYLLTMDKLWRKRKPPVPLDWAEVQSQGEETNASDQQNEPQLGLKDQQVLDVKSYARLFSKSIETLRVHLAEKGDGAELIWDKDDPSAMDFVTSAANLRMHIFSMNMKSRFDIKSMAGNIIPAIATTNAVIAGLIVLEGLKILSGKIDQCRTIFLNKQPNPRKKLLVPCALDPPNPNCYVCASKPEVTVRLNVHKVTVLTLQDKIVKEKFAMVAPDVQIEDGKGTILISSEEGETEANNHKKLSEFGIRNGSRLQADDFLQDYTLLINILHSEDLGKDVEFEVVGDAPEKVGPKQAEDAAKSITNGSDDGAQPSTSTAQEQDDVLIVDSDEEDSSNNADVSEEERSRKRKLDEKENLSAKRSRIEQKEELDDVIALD
Cytochrome P450 2C19, sequence (P33261 whole entry): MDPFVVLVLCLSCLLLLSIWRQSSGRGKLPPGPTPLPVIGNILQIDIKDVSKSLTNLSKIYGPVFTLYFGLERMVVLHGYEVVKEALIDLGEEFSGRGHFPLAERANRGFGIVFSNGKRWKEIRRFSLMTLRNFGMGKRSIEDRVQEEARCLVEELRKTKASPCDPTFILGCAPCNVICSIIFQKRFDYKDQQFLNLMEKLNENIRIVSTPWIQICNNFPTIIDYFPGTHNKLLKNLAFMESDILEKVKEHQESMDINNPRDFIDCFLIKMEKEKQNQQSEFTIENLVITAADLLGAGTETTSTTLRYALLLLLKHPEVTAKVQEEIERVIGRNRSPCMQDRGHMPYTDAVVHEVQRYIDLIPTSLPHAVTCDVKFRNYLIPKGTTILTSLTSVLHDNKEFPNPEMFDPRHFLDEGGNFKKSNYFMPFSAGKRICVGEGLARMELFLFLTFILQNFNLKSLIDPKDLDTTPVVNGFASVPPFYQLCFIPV
Photoreceptor-specific nuclear receptor, sequence (Q9Y5X4 whole entry): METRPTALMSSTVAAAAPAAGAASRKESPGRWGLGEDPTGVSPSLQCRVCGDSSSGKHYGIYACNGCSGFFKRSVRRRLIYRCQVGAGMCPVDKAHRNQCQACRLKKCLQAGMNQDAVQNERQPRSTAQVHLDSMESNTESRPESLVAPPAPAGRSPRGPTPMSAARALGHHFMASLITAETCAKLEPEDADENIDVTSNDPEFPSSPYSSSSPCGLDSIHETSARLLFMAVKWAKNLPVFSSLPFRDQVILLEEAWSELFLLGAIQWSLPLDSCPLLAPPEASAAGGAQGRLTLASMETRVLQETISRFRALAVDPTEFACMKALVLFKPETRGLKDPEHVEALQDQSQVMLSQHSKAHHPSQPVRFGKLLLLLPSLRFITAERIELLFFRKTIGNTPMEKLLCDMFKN

SMILES: Nc1c(N2CCOCC2)cc(Cl)c2nonc12
- IC50 [1]: > 50 µM (not active)

SMILES: Cc1ccc(NCC(O)C(O)C(O)CO)cc1C (stereo unspecified)
- IC50 [2]: > 83.3 µM (inactive)
- IC50 [3]: > 109 µM (inactive)

SMILES: O=C(Cc1ccc(Cl)cc1)Nc1ccc2oc(-c3ccncc3)nc2c1
- IC50 [4]: 4.29 µM (active)
- IC50 [5]: 5.54 µM (active)

SMILES: C=C[C@@]1(C)C=C2CC[C@@H]3[C@](C)(CCC[C@@]3(C)C(=O)O)[C@H]2CC1 [PIMARIC ACID]
- AC50 (Cytochrome P450 2C19): 7.94 µM (inconclusive)

SMILES: Cc1c(NC(=O)c2cccc(-c3cc4ccccc4oc3=O)c2)cccc1-c1nc2ncccc2o1
- IC50 (Prothrombin): 92 µM (active)
- IC50 [6]: 24.1 µM (active)
- IC50 [7]: > 100 µM (inactive)
- IC50 [4]: 2.33 µM (active)
- IC50 [5]: 1.72 µM (active)

SMILES: CCOC(=O)c1[nH]c2ccccc2c1NC(=O)CC(C)(C)C
- IC50 (Vero): 22.2 µM (active)

SMILES: O=C1c2ccccc2C(=O)C12OC2c1ccc(Cl)cc1 (stereo unspecified)
- IC50 [8]: > 67 µM (not active)
- AC50 [9]: 1.61 µM (active)
- EC50 (Protein RecA): 22.2 µM (inconclusive)
- IC50 (SUMO-activating enzyme [10]): 21.2 µM (active)
- IC50 (SUMO-activating enzyme [11]): 7.05 µM (active)
- IC50 [12]: > 2.48 µM (active)
- EC50 [13]: > 120 µM (not active)
- EC50 (H4): > 120 µM (not active)
- EC50 [14]: > 120 µM (not active)

SMILES: CC(=O)c1cnc(Nc2cccc(Cl)c2Cl)s1
- EC50 [15]: > 38 µM (not active)
- IC50 [2]: > 83.3 µM (inactive)
- IC50 [3]: > 109 µM (inactive)
- EC50 [16]: > 160 µM (inactive)

SMILES: CC(=O)c1ccc(C2C=CC(Oc3ccc(F)cc3C)C(CO)O2)cc1 (stereo unspecified)
- AC50 (Cytochrome P450 2C19): 6.31 µM (inconclusive)
